Measured values published in patent US20230414619A1 (priority 2020, published 2023).

Legend:
[1] = test system: PBMCs from a COVID-19 patient; type: cell-based, human
SARS-CoV-2 = conditions: emetine inhibition of Rps14; pladienolide inhibition of SF3B1; cited from earlier work

Row | SMILES | differentially expressed host factors necessary for SARS-CoV-2 pathogenesis (siRNA and CRISPR screens) [1] | differentially expressed host interactors of SARS-CoV-2 viral RNA [1] | differentially expressed host proteins that interact with SARS-CoV-1/2 and MERS encoded proteins [1] | downregulated proteins following treatment [1] | upregulated proteins following treatment [1] | proteins differentially expressed following treatment ([1]; of 5566 proteins quantified, ANOVA P value<0.05, 0-24 h treatment) | differentially expressed proteins whose turnover is G9a dependent in ET macrophages ([1]; out of 292, 78 upregulated, 74 downregulated) | SARS-CoV-2 replication (SARS-CoV-2)
1 | COc1cc2c(NC3CCN(C(C)C)CC3)nc(N3CCC(F)(F)CC3)nc2cc1OCCCN1CCCC1 [UNC0642] | 8 | 2 | 129 | 151 | 141 | 292 | 152 | 
2 | CC[C@H]1CN2CCc3cc(OC)c(OC)cc3[C@@H]2C[C@@H]1C[C@H]1NCCc2cc(OC)c(OC)cc21 [emetine] |  |  |  |  |  |  |  | significantly reduced
3 | CC[C@H](O)[C@@H](C)[C@H]1O[C@@H]1C[C@H](C)/C=C/C=C(\C)[C@H]1OC(=O)C[C@H](O)CC[C@@](C)(O)[C@@H](OC(C)=O)/C=C/[C@@H]1C [pladienolide] |  |  |  |  |  |  |  | significantly reduced
